Laboratory results as given in PubChem BioAssay (NCI).
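Cultured in 96-well plates, cells were exposed to test compound for 48 hours across five concentrations. At the TGI there is no net growth.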

Tests used:
Assay in all cases: inhibition of tumour cell growth, NCI panel, 48 h
HL-60(TB) leukemia = tested on: HL-60(TB) leukemia
NCI-H23 lung = tested on: NCI-H23 lung
A549 NSCLC = tested on: A549 NSCLC
SN12C renal = tested on: SN12C renal
M14 melanoma = tested on: M14 melanoma
K-562 leukemia = tested on: K-562 leukemia
MOLT-4 leukemia = tested on: MOLT-4 leukemia
SNB-19 CNS = tested on: SNB-19 CNS
MDA-MB-435 = tested on: MDA-MB-435
NCI-H522 lung = tested on: NCI-H522 lung

Row | Compound | TGI (HL-60(TB) leukemia) | TGI (NCI-H23 lung) | TGI (A549 NSCLC) | TGI (SN12C renal) | TGI (M14 melanoma) | TGI (K-562 leukemia) | TGI (MOLT-4 leukemia) | TGI (SNB-19 CNS) | TGI (MDA-MB-435) | TGI (NCI-H522 lung)
1 | CCOC(=O)/C(C#N)=N\Nc1ccc(-n2c(C)nc3ccccc3c2=O)cc1 | > 100 µM | > 100 µM | > 100 µM | > 100 µM | > 100 µM | > 100 µM | > 100 µM | > 100 µM | > 100 µM | –
2 | CC(=O)OCC(OC(C)=O)C1C[C@H]2O[C@@H]3[C@H](C[C@H]2O1)O[C@@]1(C[C@@H]3C)C[C@H](C)[C@@H]2O[C@]3(C[C@@H]2O1)C[C@H]1O[C@H]2[C@H](C)[C@H]4OC(=O)CC5CC[C@H]6OC7[C@H]8O[C@]9(CC[C@H]%10CC(O)(CO)[C@H](CC[C@H]%11C[C@@H](C)C(O)(CO)C(C[C@@H]4O[C@H]2C[C@H]1O3)O%11)O%10)CC8O[C@@H]7[C@@H](O9)[C@H]6O5 (some centres not stated) | – | – | > 1 µM | > 1 µM | > 1 µM | > 1 µM | > 1 µM | > 1 µM | 0.0139 µM | 0.00451 µM
3 | Brc1ccc2c(-c3csc(-c4c[nH]c5cc(Br)ccc45)n3)c[nH]c2c1 | > 100 µM | 53.2 µM | > 50.7 µM | > 100 µM | > 56.5 µM | > 43.8 µM | > 62.8 µM | 58.2 µM | 17.5 µM | –
4 | Cc1cn(C(C)OCCN2C(=O)c3ccccc3C2=O)c(=O)[nH]c1=O (configuration not stated) | – | > 100 µM | > 100 µM | > 100 µM | > 100 µM | > 100 µM | > 100 µM | > 100 µM | > 100 µM | –
5 | CC1(C(=O)O)CCCC1C(=O)O (configuration not stated) | > 100 µM | > 100 µM | > 100 µM | > 100 µM | > 100 µM | > 100 µM | > 100 µM | > 100 µM | – | > 100 µM
6 | COc1c(Br)cc(CC(N)=O)c(O)c1Br | > 100 µM | > 100 µM | > 100 µM | > 100 µM | – | > 100 µM | > 100 µM | > 100 µM | – | > 100 µM
7 | COCC1OC(N2C(=O)NC(=O)[C@@H]3C=C4CCCCC4=C[C@@H]32)C(OC)C1OC (some centres not stated) | > 100 µM | – | > 100 µM | > 100 µM | > 100 µM | > 100 µM | > 100 µM | > 100 µM | > 100 µM | > 100 µM
8 | CCN1CCC(O)(C(C(=O)O)c2ccccc2)CC1 (configuration not stated) | > 100 µM | > 100 µM | > 100 µM | – | > 100 µM | > 100 µM | – | > 100 µM | > 100 µM | > 100 µM
9 | CNC(=O)N(CCC#N)[C@H]1CCCC[C@@H]1N(C(=O)NC)c1ccccc1 | – | > 100 µM | > 100 µM | > 100 µM | > 100 µM | > 100 µM | > 100 µM | > 100 µM | > 100 µM | > 100 µM
10 | O=c1oc2cc(O)ccc2c(O)c1C(c1ccc(C(c2c(O)c3ccc(O)cc3oc2=O)c2c(O)c3ccc(O)cc3oc2=O)cc1)c1c(O)c2ccc(O)cc2oc1=O | > 100 µM | > 100 µM | > 100 µM | > 100 µM | > 100 µM | > 100 µM | > 100 µM | – | > 100 µM | –
11 | CC(=O)OC/C=C(/C=C/CNC1CCCCC1)OC(C)=O | – | 29.9 µM | > 100 µM | 32.1 µM | 21.2 µM | 32 µM | > 100 µM | 49.9 µM | 30.4 µM | 42.1 µM
12 | CC1(C)OCC2OC3([C@H]4OC(C)(C)O[C@@H]4CO)OC(C)(C)OC3C2O1 (some centres not stated) | – | > 100 µM | > 100 µM | > 100 µM | > 100 µM | > 100 µM | > 100 µM | > 100 µM | > 100 µM | –
13 | COc1ccc2c(c1)CC1=C(O2)c2ccc(OC)cc2OC1 | > 100 µM | > 100 µM | > 100 µM | 44.3 µM | 37.3 µM | > 100 µM | > 100 µM | – | 47.5 µM | 35.4 µM
14 | COC(=O)C1CC2(c3ccccc3)C(=O)c3ccccc3N2O1 (configuration not stated) | 82.1 µM | > 100 µM | > 100 µM | > 100 µM | > 100 µM | > 100 µM | 75.8 µM | > 100 µM | – | 28.8 µM
15 | O=[N+]([O-])c1ccc(-c2ccc(-c3csc(Nc4ccccn4)n3)o2)cc1 | > 100 µM | – | – | > 100 µM | > 100 µM | > 100 µM | > 100 µM | 77.4 µM | – | > 100 µM
16 | COc1ccc(-c2c(C#N)c(N)nc3c2CCS(=O)(=O)c2ccccc2-3)cc1 | > 100 µM | > 100 µM | > 100 µM | > 100 µM | – | > 100 µM | – | > 100 µM | > 100 µM | > 100 µM
17 | O=C(O)C(CS)N=c1c2ccccc2n(O)c2ccccc12 (configuration not stated) | > 100 µM | > 100 µM | > 100 µM | > 100 µM | > 100 µM | > 100 µM | > 100 µM | > 100 µM | – | > 100 µM
18 | Cc1c2ncccc2cc2oc3ccccc3c(=O)c12 | > 100 µM | > 100 µM | > 100 µM | > 100 µM | – | > 100 µM | 23.5 µM | – | > 100 µM | > 100 µM
19 | Cc1cc2ncc3c(=O)n(NS(=O)(=O)c4ccc(N)cc4)ccc3n2n1 | > 100 µM | > 100 µM | > 100 µM | > 100 µM | > 100 µM | – | > 100 µM | > 100 µM | > 100 µM | > 100 µM
20 | CC1CC(=O)Nc2nc3ccccc3n21 (configuration not stated) | > 100 µM | > 100 µM | > 100 µM | – | > 100 µM | > 100 µM | > 100 µM | > 100 µM | > 100 µM | > 100 µM
21 | O=c1c(-c2ccc(Cl)cc2)nnc2n(Cc3ccccc3)c3ccccc3n12 | > 100 µM | > 100 µM | > 100 µM | > 100 µM | > 100 µM | – | > 100 µM | 72 µM | > 100 µM | > 100 µM
22 | C=C1CC(C)(c2ccc(Nc3nc4ccccc4c4occc34)cc2)OC1=O (configuration not stated) | 6.34 µM | 4.55 µM | 23.7 µM | 4.91 µM | 4.73 µM | > 100 µM | – | 34.6 µM | 6.09 µM | –
